According to patent US20230414552A1, “NOVEL METHODS” (Colgate-Palmolive Company, priority 2020, published 2023):

Legend:
Format in all cases: cell-based
PDLSCs [1] = assay: BrdU analysis of PDLSC proliferation; details: ERK activator treatment of PDLSCs
Description: (§1) To examine whether ERK activator can elevate PDLSC function through Wnt signaling, five different ERK activators are used to treat PDLSCs, and BMSCs (“Bone marrow-derived mesenchymal stem/stromal cells”) serve as the control in this experiment.

BMSCs = assay: BrdU analysis of BMSC proliferation (control cells); details: BMSCs as control cells
Description: as §1

Wnt/β-catenin = assay: Western blot of ERK downstream signaling in PDLSCs; details: PDLSCs after treatment
Description: Subsequently, ERK downstream signaling pathways involve screening using a Western blot technique. This includes screening for Shp2 signaling, Notch signaling, and Wnt signaling.

PDLSCs [2] = assay: Alizarin red staining of PDLSC osteogenesis under osteogenic induction; details: for Mineralized Area (% Total Area): control 47% ± 3.61
Procedure: To examine the effect of natural compounds PEITC and resveratrol in PDLSC osteogenesis, cells are treated with 1 uM PEITC or 5 uM resveratrol under osteogenic induction. […] The stained positive areas are then quantifiable using NIH ImageJ software and shown as a percentage of the total area. To examine the effect of natural compounds yellow and white curcumin extracts in GMSC and PDLSC osteogenesis, cells are treated with 5 μM yellow and white curcumin extracts under osteogenic induction. Alizarin red staining show yellow curcumin extract, but not white curcumin extract treatment elevated osteogenic differentiation, as indicated by increased mineralized nodule formation. The stained positive areas were quantified using NIH ImageJ software and shown as a percentage of the total area.

PDLSCs [3] = assay: Western blot of osteogenic genes Runx2 and ALP in PDLSCs; details: PDLSC, 1 uM PEITC or 5 uM resveratrol, osteogenic induction
Procedure: The expression of the osteogenic genes runt-related transcription factor 2 (Runx2) and alkaline phosphatase (ALP) are also elevated in PEITC or resveratrol treated groups, assessable by Western blot. […] To examine the effect of natural compounds yellow and white curcumin extracts in GMSC and PDLSC osteogenesis, cells are treated with 5 μM yellow and white curcumin extracts under osteogenic induction. Alizarin red staining show yellow curcumin extract, but not white curcumin extract treatment elevated osteogenic differentiation, as indicated by increased mineralized nodule formation. The stained positive areas were quantified using NIH ImageJ software and shown as a percentage of the total area.

CD3+ T cells = assay: PDLSC/T cell co-culture, flow cytometric analysis of apoptotic T cells; details: flow cytometry
Procedure: PEITC and resveratrol are tested to determine whether they contribute to PDLSC immunomodulation. A PDLSC/T cell co-culture experiment examines the immunomodulatory properties of PDLSCs with different compounds treatment.

PDLSCs [4] = assay: Toluidine blue staining of surviving PDLSCs after co-culture with activated T cells
Description: After co-culture, toluidine blue staining allows for observation of the surviving PDLSCs that remain on the culture plates as positive staining. […] Natural ERK activators, PEITC and resveratrol, protect PDLSCs survival.

GMSC = assay: BrdU incorporation assay of GMSC proliferation; details: for Brdu + BMSC/Total Cells (%): control 28.1% ± 0.75

Structure (SMILES) | PDLSC proliferation rate (BrdU analysis) (PDLSCs [1]) | effect on proliferation rate in BMSCs (BrdU analysis) (BMSCs) | Wnt/β-catenin activation (Western blot) (Wnt/β-catenin) | osteogenic differentiation, mineralized nodule formation (Alizarin red staining) (PDLSCs [2]; 5 uM resveratrol) | Mineralized Area (% Total Area) (PDLSCs [2]; 5 μM) | expression of Runx2 (Western blot) (PDLSCs [3]) | expression of alkaline phosphatase (ALP) (Western blot) (PDLSCs [3]) | PDLSC immunomodulation (AnnexinV+7AAD+ double positive apoptotic CD3+ T cells) (CD3+ T cells) | PDLSC survival from activated T cell attack (toluidine blue staining) (PDLSCs [4]) | GMSC cell proliferation (BrdU incorporation assay) (GMSC; 5 uM) | Brdu + BMSC/Total Cells (%) (GMSC; 5 μM) | osteogenic differentiation, mineralized nodule formation (Alizarin red staining) (PDLSCs [2]; 1 uM PEITC) | Mineralized Area (% Total Area) (PDLSCs [2]; 1 μM) | GMSC cell proliferation (BrdU incorporation assay) (GMSC; 1 uM) | Brdu + BMSC/Total Cells (%) (GMSC; 1 μM)
CC(C)(C)c1cc(O)ccc1O [t-Butylhydroquinone, reference compound] | significantly increases | not observable | highly activated | – | – | – | – | – | – | – | – | – | – | – | –
Oc1ccc(/C=C/c2cc(O)cc(O)c2)cc1 [resveratrol, 3,5,4′-trihydroxy-trans-stilbene] | significantly increases | not observable | highly activated | elevate | 59% ± 2.00 | elevated | elevated | significantly promotes | protect | significantly elevated | 47.6% ± 3.17 | – | – | – | –
S=C=NCCc1ccccc1 [PEITC, Phenethyl Isothiocyanate] | significantly increases | not observable | highly activated | – | – | elevated | elevated | significantly promotes | protect | – | – | elevate | 65% ± 3.46 | significantly elevated | 48.6% ± 4.79
